Source: patent publication US8697692B2, “Pyrrolo [3,2-c] pyridine-4-one 2-indolinone protein kinase inhibitors” (Shanghai Hengrui Pharmaceutical Co., Ltd., priority 2006, dated 2014)

What was measured:
EGFR kinase = target: T1, EGFR kinase (Homo sapiens, UniProt P00533); assay: EGFR Kinase Assay; assay type: biochemical; conditions: 20 μM ATP, 25° C. 45 minutes
T1 construct: purchased Cell signaling technology #7908
Protocol: EGFR kinase activity in vitro was measured as described below:
a. Wash Buffer (PBS-T Buffer): 1×PBS (137 mM NaCl, 2.7 mM KCl, 4.3 mM Na2HPO4, 1.4 mM KH2PO4, adjust the pH to 7.2) and 0.05% Tween-20.
b. 1% Bovine Serum Albumin (BSA, Calbiochem #136593) in PBS-T.
c. Stop Buffer: 50 mM EDTA, pH 8.0
d. DELFIA® Europium-labeled Anti-mouse IgG (PerkinElmer Life Sciences #AD0124)
e. DELFIA® Enhancement Solution (PerkinElmer Life Sciences #1244-105)
f. DELFIA® Streptavidin coated, 96-well, yellow plate (PerkinElmer Life Sciences #AAAND-0005)
g. EGFR kinase (supplied in 50 mM Tris-HCl (pH 8.0), 100 mM NaCl, 5 mM DTT, 15 mM reduced glutathione and 20% glycerol. Cell signaling technology #7908).
h. 10 mM ATP solution (Cell signaling technology #9804).
i. PTP1B (Tyr66) Biotinylated Peptide (Cell signaling technology #1325).
j. Phospho-Tyrosine Mouse mAb (P-Tyr-100) (Cell signaling technology #9411).
(§1) k. HTScan™ Tyrosine Kinase Buffer (4×)
(Cell signaling technology #9805).
l. 1.25 M DTT (1000×) (Cell signaling technology).
(§2) The following protocol was used:
(§3) 1. Dilute test compound with DMSO to the desired final assay concentration.
2. Dilute 6 μM substrate peptide (Tyr66) 1:1 with dH2O, add 15 μl to every assay.
3. Immediately transfer EGFR enzyme from −80° C. to ice. Allow enzyme to thaw on ice.
4. Take 3 μg EGFR enzyme to the enzyme tube.
5. Add 10 μl of DTT (1.25 M) to 2.5 ml of 4×HTScan™ Tyrosine Kinase Buffer (240 mM HEPES pH 7.5, 20 mM MgCl2, 20 mM MnCl2, 12 μM Na3VO4) to make DTT/Kinase buffer.
(§4) 6. Transfer 0.75 ml of DTT/Kinase buffer to each enzyme tube to make 4× reaction cocktail. Add 7.5 μl 4× reaction cocktail to every assay.
7. Add 4 μl ATP (10 mM) to 496 μl dH2O, take 7.5 μl for every assay.
Final Assay Conditions for a 30 μl Reaction
(§5) Incubate reaction tube at 25° C. for 45 minutes. 9. Add 30 μl/assay stop buffer (50 mM EDTA, pH 8.0) to stop the reaction. 10. Transfer 25 μl of each reaction and 75 μl dH2O/well to a 96-well streptavidin coated plate and incubate, with shaking at room temperature for 60 minutes. 11. Wash three times with 200 μl/well PBS-T buffer. Pat plate on paper towel to remove excess liquid. 12. Dilute primary antibody, Phospho-Tyrosine mAb (P-Tyr-100), 1:1000 in PBS-T buffer with 1% BSA. Add 100 μl diluted primary antibody to each well. 13. Incubate, with shaking at room temperature for 60 minutes. 14. Wash as described above in step 11. 15. Dilute Europium labeled anti-mouse IgG 1:500 in PBS-T buffer with 1% BSA. Add 100 μl diluted antibody to each well. 16. Incubate, with shaking at room temperature for 30 minutes. 17. Wash five times with 200 μl/well PBS-T buffer. Pat plate on paper towel to remove excess liquid. 18. Add 100 μl/well DELFIA® Enhancement Solution. 19. Incubate, with shaking at room temperature for 5 minutes. 20. Detect 615 nm fluorescence emission with appropriate Time-Resolved Plate Reader.
Calculate the inhibition rate: IR (%)=100−100*(X−B)/(N−B)
(§6) X=the fluorescence value of the well contained test compound
(§7) The IC50 value can be derived from the IRs of compounds at different concentration gradients.

[1] = target: T2, recombinant human VEGF-R2 (Homo sapiens, UniProt P35968); assay: VEGF-R2 Kinase Assay (ELISA); assay type: biochemical; conditions: 10 μM ATP, 25° C. 30 minutes, read-out: IC50 (VEGFR/bio)
T2 construct: purchased Cell signaling technology #7787
T2 sequence (P35968 20-1356): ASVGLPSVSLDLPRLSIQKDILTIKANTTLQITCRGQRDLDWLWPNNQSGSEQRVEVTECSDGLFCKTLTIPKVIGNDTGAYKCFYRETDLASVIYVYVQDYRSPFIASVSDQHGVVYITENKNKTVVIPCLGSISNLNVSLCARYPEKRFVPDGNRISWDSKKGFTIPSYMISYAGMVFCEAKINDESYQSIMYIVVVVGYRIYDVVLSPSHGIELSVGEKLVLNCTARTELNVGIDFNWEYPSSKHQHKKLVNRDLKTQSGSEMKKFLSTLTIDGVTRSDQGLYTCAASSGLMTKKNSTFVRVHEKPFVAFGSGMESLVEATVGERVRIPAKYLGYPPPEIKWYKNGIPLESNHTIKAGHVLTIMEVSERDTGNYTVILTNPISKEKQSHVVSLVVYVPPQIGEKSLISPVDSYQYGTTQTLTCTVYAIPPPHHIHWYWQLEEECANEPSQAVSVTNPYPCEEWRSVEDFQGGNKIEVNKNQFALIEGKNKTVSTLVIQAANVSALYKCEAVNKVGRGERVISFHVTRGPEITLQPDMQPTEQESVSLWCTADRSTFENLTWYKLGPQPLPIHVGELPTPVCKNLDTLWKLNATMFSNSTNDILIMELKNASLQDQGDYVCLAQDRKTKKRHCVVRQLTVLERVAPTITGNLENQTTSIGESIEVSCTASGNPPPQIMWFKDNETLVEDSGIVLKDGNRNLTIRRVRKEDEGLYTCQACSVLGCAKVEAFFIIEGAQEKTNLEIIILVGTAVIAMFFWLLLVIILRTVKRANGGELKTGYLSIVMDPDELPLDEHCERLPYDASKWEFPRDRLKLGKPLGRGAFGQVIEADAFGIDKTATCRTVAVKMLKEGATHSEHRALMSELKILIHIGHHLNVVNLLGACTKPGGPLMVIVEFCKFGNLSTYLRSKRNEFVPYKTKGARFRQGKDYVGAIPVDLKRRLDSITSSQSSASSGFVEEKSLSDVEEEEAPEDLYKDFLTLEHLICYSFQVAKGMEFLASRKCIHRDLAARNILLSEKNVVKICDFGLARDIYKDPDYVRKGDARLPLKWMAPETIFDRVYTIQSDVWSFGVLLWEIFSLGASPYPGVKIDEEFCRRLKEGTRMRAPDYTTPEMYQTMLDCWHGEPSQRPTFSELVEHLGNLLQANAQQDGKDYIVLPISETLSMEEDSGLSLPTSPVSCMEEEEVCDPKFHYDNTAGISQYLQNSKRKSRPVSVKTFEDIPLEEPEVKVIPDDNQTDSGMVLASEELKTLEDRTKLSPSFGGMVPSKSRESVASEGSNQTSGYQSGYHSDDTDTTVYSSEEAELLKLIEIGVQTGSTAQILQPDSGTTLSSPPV
Protocol: This assay is used to measure the in vitro kinase activity of recombinant human VEGF-R2 in an ELISA assay.
c. Stop Buffer: 50 mM EDTA, pH 8.0.
d. DELFIA® Europium-labeled Anti-mouse IgG (PerkinElmer Life Sciences #AD0124).
f. DELFIA® Streptavidin coated, 96-well, yellow plate (PerkinElmer Life Sciences #AAAND-0005).
as §1, §2, §3
2. Dilute 6 μM substrate peptide (Tyr87) 1:1 with dH2O, add 15 μl to every assay.
3. Immediately transfer VEGF-R2 enzyme from −80° C. to ice. Allow enzyme to thaw on ice.
4. Take 2.2 μg VEGF-R2 enzyme to the enzyme tube.
as §4
7. Add 2 μl ATP (10 mM) to 498 μl dH2O, take 7.5 μl for every assay. Final Assay Conditions for a 30 μl Reaction
as §5, with “30” for “45”, “Dilute primary antibody, Phospho-Tyrosine mAb (P-Tyr-100), 1:1000 in PBS-T buffer with 1% BSA.” left out
as §6, §7

T1 sequence (P00533 25-1210): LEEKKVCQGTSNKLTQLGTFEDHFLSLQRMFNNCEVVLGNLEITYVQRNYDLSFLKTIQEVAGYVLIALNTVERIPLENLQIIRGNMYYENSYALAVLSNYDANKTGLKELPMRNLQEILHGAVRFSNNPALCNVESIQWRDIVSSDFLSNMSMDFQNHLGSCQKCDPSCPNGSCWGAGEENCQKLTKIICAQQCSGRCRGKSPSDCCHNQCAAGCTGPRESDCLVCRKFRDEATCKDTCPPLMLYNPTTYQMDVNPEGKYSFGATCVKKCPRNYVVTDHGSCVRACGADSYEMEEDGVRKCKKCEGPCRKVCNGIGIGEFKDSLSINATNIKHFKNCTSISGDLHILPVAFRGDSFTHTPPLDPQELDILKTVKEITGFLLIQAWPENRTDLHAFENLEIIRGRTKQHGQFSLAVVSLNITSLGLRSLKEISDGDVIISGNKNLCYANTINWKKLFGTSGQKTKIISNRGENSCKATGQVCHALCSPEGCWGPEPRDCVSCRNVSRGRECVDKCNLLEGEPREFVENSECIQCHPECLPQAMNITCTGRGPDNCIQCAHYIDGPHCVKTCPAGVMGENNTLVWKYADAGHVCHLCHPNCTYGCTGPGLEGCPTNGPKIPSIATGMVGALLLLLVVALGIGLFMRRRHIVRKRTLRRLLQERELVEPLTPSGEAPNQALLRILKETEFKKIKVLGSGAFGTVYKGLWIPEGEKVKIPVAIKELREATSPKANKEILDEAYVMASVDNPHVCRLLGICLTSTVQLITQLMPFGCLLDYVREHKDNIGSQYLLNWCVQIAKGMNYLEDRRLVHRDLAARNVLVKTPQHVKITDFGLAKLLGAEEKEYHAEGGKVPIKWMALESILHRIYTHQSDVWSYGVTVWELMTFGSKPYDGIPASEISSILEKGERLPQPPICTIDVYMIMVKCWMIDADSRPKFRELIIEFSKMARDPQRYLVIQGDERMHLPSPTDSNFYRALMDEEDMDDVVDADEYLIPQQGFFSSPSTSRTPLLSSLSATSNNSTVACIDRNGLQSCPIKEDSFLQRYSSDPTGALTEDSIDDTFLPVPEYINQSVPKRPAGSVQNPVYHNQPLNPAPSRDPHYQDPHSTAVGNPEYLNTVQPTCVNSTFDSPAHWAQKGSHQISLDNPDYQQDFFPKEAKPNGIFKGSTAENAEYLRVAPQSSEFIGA

For CCN(CC)CCN1CCc2[nH]c(/C=C3\C(=O)Nc4ncnc(Nc5ccc(F)c(Cl)c5)c43)c(C)c2C1=O [Example 12, 4-(3-Chlor O-4-fluoro-phenylamino)-5-[5-(2-diethylamino-ethyl)-3-methyl-4-oxo-4,5,6,7-tetrahydro-1H-pyrrolo[3,2-c]pyridine-2-ylmethylene]-5,7-dihydro-pyrrolo[2,3-d]pyrimidin-6-one], the IC50 (EGFR kinase) was 60 nM and the IC50 [1] was 1890 nM.

Cc1c(/C=C2\C(=O)Nc3ccc(Cl)cc32)[nH]c2c1C(=O)N(CCN1CCOCC1)CC2 [Example 16, 2-(5-Chloro-2-oxo-1,2-dihydro-indol-3-ylidenemethyl)-3-methyl-5-(2-morpholin-4-yl-ethyl)-1,5,6,7-tetrahydro-pyrrolo[3,2-c]pyridin-4-one] was tested, and the IC50 [1] was 44 nM.

Molecule Cc1c(/C=C2\C(=O)Nc3ncnc(Nc4ccc(F)c(Cl)c4)c32)[nH]c2c1C(=O)N(CCN1CCOCC1)CC2 [Example 24, 4-(3-Chloro-4-fluoro-phenylamino)-5-[3-methyl-5-(2-morpholin-4-yl-ethyl)-4-oxo-4,5,6,7-tetrahydro-1H-pyrrolo[3,2-c]pyridine-2-ylmethylenene]-5,7-dihydro-pyrrolo[2,3-d]pyrimidin-6-one] has an IC50 (EGFR kinase) of 310 nM and an IC50 [1] of 680 nM.

Work on CCN(CC)CCN1CCc2[nH]c(/C=C3\C(=O)Nc4cccc(Br)c43)c(C)c2C1=O [Example 30, 2-(4-Bromo-2-oxo-1,2-dihydro-indol-3-ylidenemethyl)-5-(2-diethylamino-ethyl)-3-methyl-1,5,6,7-tetrahydro-pyrrolo[3,2-c]pyridin-4-one] yielded an IC50 (EGFR kinase) of 4950 nM and an IC50 [1] of 94 nM.

With CCN(CC)CCN1CCc2[nH]c(/C=C3\C(=O)Nc4cccc(C5CCNCC5)c43)c(C)c2C1=O [Example 31, 5-(2-Diethylamino-ethyl)-3-methyl-2-(2-oxo-4-piperidin-4-yl-1,2-dihydro-indol-3-ylidenemethyl)-1,5,6,7-tetrahydro-pyrrolo[3,2-c]pyridin-4-one] the IC50 (EGFR kinase) was 210 nM and the IC50 [1] was 35 nM.

Molecule CCN(CC)CCN1CCc2[nH]c(/C=C3\C(=O)Nc4cccc(-c5ccc(Cl)cc5F)c43)c(C)c2C1=O [Example 34, 2-[4-(4-Chloro-2-fluoro-phenyl)-2-oxo-1,2-dihydro-indol-3-ylidenemethyl]-5-(2-diethylamino-ethyl)-3-methyl-1,5,6,7-tetrahydro-pyrrolo[3,2-c]pyridin-4-one] has an IC50 (EGFR kinase) of 940 nM and an IC50 [1] of 11 nM.

In the case of CCN(CC)CCN1CCc2[nH]c(/C=C3\C(=O)Nc4ccc(OC)cc43)c(C)c2C1=O [Example 35, 5-(2-Diethylamino-ethyl)-2-(5-methoxy-2-oxo-1,2-dihydro-indol-3-ylidenemethyl)-3-methyl-1,5,6,7-tetrahydro-pyrrolo[3,2-c]pyridin-4-one], the IC50 (EGFR kinase) is reported as 3320 nM.

Molecule CCN(CC)CCN1CCc2[nH]c(/C=C3\C(=O)Nc4cccc(-c5cccc(Cl)c5F)c43)c(C)c2C1=O [Example 36, 2-[4-(3-Chloro-2-fluoro-phenyl)-2-oxo-1,2-dihydro-indol-3-ylidenemethyl]-5-(2-diethylamino-ethyl)-3-methyl-1,5,6,7-tetrahydro-pyrrolo[3,2-c]pyridin-4-one] has an IC50 (EGFR kinase) of 180 nM and an IC50 [1] of 10 nM.

CCN(CC)CCN1CCc2[nH]c(/C=C3\C(=O)Nc4cccc(CCO)c43)c(C)c2C1=O [Example 37, 5-(2-Diethylamino-ethyl)-2-[4-(2-hydroxy-ethyl)-2-oxo-1,2-dihydro-indol-3-ylidenemethyl]-3-methyl-1,5,6,7-tetrahydro-pyrrolo[3,2-c]pyridin-4-one] showed an IC50 (EGFR kinase) of 2890 nM and an IC50 [1] of 70 nM.

CCN(CC)CCN1CCc2[nH]c(/C=C3\C(=O)Nc4cccc(-c5cccc(F)c5F)c43)c(C)c2C1=O [Example 39, 5-(2-diethylamino-ethyl)-2-[4-(2,3-difluoro-phenyl)-2-oxo-1,2-dihydro-indol-3-ylidenemethyl]-3-methyl-1,5,6,7-tetrahydro-pyrrolo[3,2-c]pyridin-4-one] was tested, and the IC50 (EGFR kinase) was 340 nM and the IC50 [1] was 7.1 nM.

Cc1c(/C=C2\C(=O)Nc3ccc(Br)cc32)[nH]c2c1C(=O)N(CCN1CCCC1)CC2 [Example 40, 2-(5-Bromo-2-oxo-1,2-dihydro-indol-3-ylidenemethyl)-3-methyl-5-(2-pyrrolidin-1-yl-ethyl)-1,5,6,7-tetrahydro-pyrrolo[3,2-c]pyridin-4-one] showed an IC50 (EGFR kinase) of 760 nM and an IC50 [1] of 47 nM.

Cc1c(/C=C2\C(=O)Nc3ncc(Br)cc32)[nH]c2c1C(=O)N(CCN1CCOCC1)CC2 [Example 50, 2-(5-Bromo-2-oxo-1,2-dihydro-pyrrolo[2,3-b]pyridin-3-ylidenemethyl)-3-methyl-5-(2-morpholin-4-yl-ethyl)-1,5,6,7-tetrahydro-pyrrolo[3,2-c]pyridin-4-one] gave an IC50 (EGFR kinase) of 510 nM.

Cc1c(/C=C2\C(=O)Nc3cccc(C4CCNCC4)c32)[nH]c2c1C(=O)N(CCN1CCOCC1)CC2 [Example 52, 3-Methyl-5-(2-morpholin-4-yl-ethyl)-2-(2-oxo-4-piperidin-4-yl-1,2-dihydro-indol-3-ylidenemethyl)-1,5,6,7-tetrahydro-pyrrolo[3,2-c]pyridin-4-one] gave an IC50 [1] of 1270 nM.
